# How the values were obtained:
# Anas platyrhynchos = conditions: oral, mortality
# Bibionidae = conditions: chronic/long-term; duration: 28 days
# Colinus virginianus = conditions: acute; oral; diet; mortality
# Oncorhynchus mykiss = conditions: acute; duration: 96 hours; mortality
# Oryctolagus sp. = conditions: reproduction developmental; body weight
# Pimephales promelas = conditions: chronic/long-term; duration: 21 days; growth
# Tagia sp. = conditions: acute; duration: 14 days; mortality
structure (smiles),measurement,setting,value
Oc1ccccc1-c1ccccc1 [2-Phenylphenol],LD50,"Anas platyrhynchos; acute, unspecified",> 2250 mg/kg-day
same,LC50,"Anas platyrhynchos; short-term, feed",> 1900 mg/kg-day
same,NOEC,Bibionidae,1.85 mg/L
same,LC50,Colinus virginianus,> 2810 mg/kg-day
same,LC50,Oncorhynchus mykiss,4 µg/mL
same,NOAEL,Oryctolagus sp.,100 mg/kg-day
same,NOEC,Pimephales promelas,0.036 mg/L
same,LD50,"Rattus norvegicus; acute, oral, mortality",2730 mg/kg-day
same,NOAEL,"Rattus norvegicus; chronic, duration: 2 years, oral, Fischer 344, histopathology: neoplastic",39 mg/kg-day
same,NOAEL,Rattus norvegicus; reproduction developmental,500 mg/kg-day
same,LC50,Tagia sp.,198 mg/kg

# — EPA's ToxValDB 9.5 (doi:10.2903/j.efsa.2009.217r)
